From patent US8815882B2, “Pyrazole aminopyrimidine derivatives as LRRK2 modulators” (Genentech, Inc., priority 2010, dated 2014) come the findings set out here.

The structures appear in SMILES notation.

T1 sequence (Q5S007 whole entry G2019S): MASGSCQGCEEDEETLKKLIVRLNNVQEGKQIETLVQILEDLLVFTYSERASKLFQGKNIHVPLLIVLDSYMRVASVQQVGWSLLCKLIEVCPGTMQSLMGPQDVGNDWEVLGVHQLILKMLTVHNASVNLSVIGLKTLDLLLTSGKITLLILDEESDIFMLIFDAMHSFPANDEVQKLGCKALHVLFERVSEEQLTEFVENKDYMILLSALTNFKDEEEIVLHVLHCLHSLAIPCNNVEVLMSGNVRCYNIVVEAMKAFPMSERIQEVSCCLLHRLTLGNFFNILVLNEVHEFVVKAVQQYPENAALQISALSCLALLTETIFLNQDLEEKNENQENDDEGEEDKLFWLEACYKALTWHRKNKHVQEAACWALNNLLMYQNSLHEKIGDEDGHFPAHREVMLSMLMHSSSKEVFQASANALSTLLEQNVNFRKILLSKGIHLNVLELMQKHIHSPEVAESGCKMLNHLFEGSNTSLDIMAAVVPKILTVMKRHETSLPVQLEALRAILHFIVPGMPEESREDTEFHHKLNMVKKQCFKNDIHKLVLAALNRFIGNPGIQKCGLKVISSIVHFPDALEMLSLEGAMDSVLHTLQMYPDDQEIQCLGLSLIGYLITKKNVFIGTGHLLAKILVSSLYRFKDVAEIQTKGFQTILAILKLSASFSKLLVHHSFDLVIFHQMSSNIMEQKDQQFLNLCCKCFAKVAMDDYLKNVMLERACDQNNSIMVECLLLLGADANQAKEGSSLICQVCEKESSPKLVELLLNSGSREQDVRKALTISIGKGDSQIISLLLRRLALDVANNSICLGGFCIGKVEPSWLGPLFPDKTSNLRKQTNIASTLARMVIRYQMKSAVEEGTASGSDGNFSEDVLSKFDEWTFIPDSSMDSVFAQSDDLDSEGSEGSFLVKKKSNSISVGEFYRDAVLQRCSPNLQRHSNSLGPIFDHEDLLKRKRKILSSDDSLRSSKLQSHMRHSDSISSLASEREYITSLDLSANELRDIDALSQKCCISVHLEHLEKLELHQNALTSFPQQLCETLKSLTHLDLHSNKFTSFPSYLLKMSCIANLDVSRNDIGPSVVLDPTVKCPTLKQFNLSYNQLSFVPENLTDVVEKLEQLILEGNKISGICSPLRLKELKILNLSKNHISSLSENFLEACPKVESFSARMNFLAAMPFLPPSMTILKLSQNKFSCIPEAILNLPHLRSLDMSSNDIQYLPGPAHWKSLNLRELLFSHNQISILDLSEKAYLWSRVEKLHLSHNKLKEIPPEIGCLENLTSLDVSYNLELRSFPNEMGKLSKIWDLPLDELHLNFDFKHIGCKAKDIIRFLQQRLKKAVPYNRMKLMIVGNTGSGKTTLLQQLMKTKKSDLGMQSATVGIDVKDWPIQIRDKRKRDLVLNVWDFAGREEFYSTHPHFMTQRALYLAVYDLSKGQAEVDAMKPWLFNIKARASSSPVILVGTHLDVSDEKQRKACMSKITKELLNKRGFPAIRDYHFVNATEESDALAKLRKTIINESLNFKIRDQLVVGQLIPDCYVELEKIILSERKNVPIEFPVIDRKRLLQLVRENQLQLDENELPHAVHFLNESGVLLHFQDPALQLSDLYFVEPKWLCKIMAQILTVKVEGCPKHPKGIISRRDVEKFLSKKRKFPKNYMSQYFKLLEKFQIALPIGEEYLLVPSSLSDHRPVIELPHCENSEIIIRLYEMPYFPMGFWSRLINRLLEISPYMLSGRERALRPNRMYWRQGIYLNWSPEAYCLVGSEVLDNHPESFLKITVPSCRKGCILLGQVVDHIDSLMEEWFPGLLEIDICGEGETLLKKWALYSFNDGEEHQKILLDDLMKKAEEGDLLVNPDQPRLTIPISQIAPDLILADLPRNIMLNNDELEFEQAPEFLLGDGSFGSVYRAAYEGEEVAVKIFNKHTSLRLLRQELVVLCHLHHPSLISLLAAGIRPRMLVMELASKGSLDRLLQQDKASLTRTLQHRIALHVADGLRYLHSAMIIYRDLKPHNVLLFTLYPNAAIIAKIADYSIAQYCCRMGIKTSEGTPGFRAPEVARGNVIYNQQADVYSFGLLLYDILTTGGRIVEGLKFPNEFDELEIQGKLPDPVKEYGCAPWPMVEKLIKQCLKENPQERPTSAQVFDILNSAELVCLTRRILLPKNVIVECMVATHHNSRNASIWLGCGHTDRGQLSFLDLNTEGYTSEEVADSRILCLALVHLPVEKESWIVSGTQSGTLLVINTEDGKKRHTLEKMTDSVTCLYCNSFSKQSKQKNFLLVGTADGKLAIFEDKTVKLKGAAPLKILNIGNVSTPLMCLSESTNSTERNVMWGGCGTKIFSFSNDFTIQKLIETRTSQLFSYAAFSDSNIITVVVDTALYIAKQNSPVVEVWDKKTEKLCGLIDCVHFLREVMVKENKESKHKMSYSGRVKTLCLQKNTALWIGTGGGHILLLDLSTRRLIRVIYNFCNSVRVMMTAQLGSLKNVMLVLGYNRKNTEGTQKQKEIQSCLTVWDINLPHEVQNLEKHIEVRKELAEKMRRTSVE

The first experiment concerns the target T1, LRRK2 (Homo sapiens, UniProt Q5S007, G2019S).
T1 construct: purchased Invitrogen PV4882 (lot 567054A)
As to the kind of experiment: In Vitro LRRK2 Assay (LabChip 3000, fluorescently-labeled peptide substrate, ATP). It is filed as biochemical. The following applies: Table 9; LRRK2 Ki (micromolar); read-out: LRRK2 Ki (KI). The gist of the method:
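Read-out was LabChip capillary electrophoresis, resolving phospho- from non-phospho-peptide by fluorescence intensity. The kinase reaction combined enzyme, ATP, test compound and labeled peptide (4 μM working dilution) for 2 h in darkness before stop solution. Values were reported as Ki, from a tight-binding model with Et, S and Km, or as IC50 or percent inhibition.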
Broadly, the Ki is a dissociation constant, usually derived from enzyme kinetics or from competition with a known ligand. For the compound `Cc1c(Nc2ncc(C#N)c(NCC(F)(F)F)n2)cnn1C` [Example 376, 2-(1,5-dimethyl-1H-pyrazol-4-ylamino)-4-(2,2,2-trifluoroethylamino) pyrimidine-5-carbonitrile], the Ki was determined as 27.5 nM.
Take `CNc1nc(Nc2cnn(C3CCOCC3)c2C)ncc1C#N` [Example 361, 2-(5-methyl-1-(tetrahydro-2H-pyran-4-yl)-1H-pyrazol-4-ylamino)-4-(methylamino) pyrimidine-5-carbonitrile]: the Ki is 8.7 nM.
As to `CNc1nc(Nc2cnn(C3CCOCC3)c2Cl)ncc1C#N` [Example 383, 2-(5-chloro-1-(tetrahydro-2H-pyran-4-yl)-1H-pyrazol-4-ylamino)-4-(methylamino) pyrimidine-5-carbonitrile], the Ki was found to be 9.6 nM.

Still in this experiment, the particulars now being: Table 10; LRRK2 Ki (micromolar); read-out: LRRK2 Ki (KI).
Take `CNC(=O)Cn1cc(Nc2ncc(C(F)(F)F)c(NC)n2)c(C)n1` [Example 397, N-methyl-2-(3-methyl-4-(4-(methylamino)-5-(trifluoromethyl)pyrimidin-2-ylamino)-1H-pyrazol-1-yl)acetamide]: the Ki was 9.5 nM.
On the same count and under the same terms, under `COc1nc(Nc2cn(C(C)(C)C#N)nc2C2CC2)ncc1Cl` [Example 438, 2-[4-(5-Chloro-4-methoxy-pyrimidin-2-ylamino)-3-cyclopropyl-pyrazol-1-yl]-2-methyl-propionitrile] stands 5.8 nM; under `CCc1nn(C(C)(C)C#N)cc1Nc1ncc(C(F)(F)F)c(NC)n1` [Example 410, 2-(3-ethyl-4-(4-(methylamino)-5-(trifluoromethyl)pyrimidin-2-ylamino)-1H-pyrazol-1-yl)-2-methylpropanenitrile], 10 nM.

Still in this experiment, the particulars now being: read-out: LRRK2 Ki (KI), Table 7.
Consider `COc1nc(Nc2cnn(C(C)(C)C#N)c2C)ncc1Cl` [Example 72, 2-(4-(5-chloro-4-methoxy-pyrimidin-2-ylamino)-5-methyl-1H-pyrazol-1-yl)-2-methylpropane-nitrile], for which the Ki was found to be 16 nM.
As for `Cc1c(Nc2ncc(Cl)c(OCC(F)(F)F)n2)cnn1C` [Example 64, 5-chloro-N-(1,5-dimethyl-1H-pyrazol-4-yl)-4-(2,2,2-trifluoroethoxy) pyrimidin-2-amine], the inhibition constant (Ki) came out at 58.6 nM.
For `COc1nc(Nc2cn(S(C)(=O)=O)nc2C)ncc1Cl` [Example 54, 5-chloro-4-methoxy-N-(3-methyl-1-(methylsulfonyl)-1H-pyrazol-4-yl)pyrimidin-2-amine], the Ki worked out at 7.8 nM.

The experiment is the same for the next values; noted with them: read-out: LRRK2 Ki (KI), Table 8.
Turning to `CCn1ncc(Nc2ncc(C(F)(F)F)c(NC)n2)c1Cl` [Example 139, N2-(5-chloro-1-ethyl-1H-pyrazol-4-yl)-N4-methyl-5-(trifluoromethyl) pyrimidine-2,4-diamine], the Ki is 2 nM.
As for `CCn1cc(Nc2ncc(Br)c(NC)n2)c(C)n1` [Example 253, 5-Bromo-N2-(1-ethyl-3-methyl-1H-pyrazol-4-yl)-N4-methyl-pyrimidine-2,4-diamine], the inhibitory constant (Ki) is 2.2 nM.
Same read-out and setting: under `CNc1nc(Nc2cn(-c3ccncc3C)nc2C)ncc1C(F)(F)F` [Example 269, N4-Methyl-N2-[3-methyl-1-(3-methyl-pyridin-4-yl)-1H-pyrazol-4-yl]-5-trifluoromethyl-pyrimidine-2,4-diamine] stands 9.1 nM; under `CNc1nc(Nc2cn(C3CCN(CC(F)(F)F)CC3)nc2C)ncc1Br` [Example 94, 5-bromo-N4-methyl-N2-(3-methyl-1-(1-(2,2,2-trifluoroethyl)piperidin-4-yl)-1H-pyrazol-4-yl)pyrimidine-2,4-diamine], 13 nM; under `CNc1nc(Nc2cnn(Cc3ccccn3)c2C)ncc1C(F)(F)F` [Example 212, N4-methyl-N2-(5-methyl-1-(pyridin-2-ylmethyl)-1H-pyrazol-4-yl)-5-(trifluoromethyl) pyrimidine-2,4-diamine], 2.9 nM.
Regarding `CCNc1nc(Nc2cn(C3CCN(C(=O)C4CC4)CC3)nc2C)ncc1C(F)(F)F` [Example 183, cyclopropyl(4-(4-(4-(ethylamino)-5-(trifluoromethyl)pyrimidin-2-ylamino)-3-methyl-1H-pyrazol-1-yl)piperidin-1-yl)methanone], the inhibition constant Ki turned out to be 0.6 nM.
Same read-out and setting: with `CNc1nc(Nc2cn([C@H]3CCN(C4COC4)C3)nc2C)ncc1C(F)(F)F` [Example 276, N4-Methyl-N2-[3-methyl-1-((S)-1-oxetan-3-yl-pyrrolidin-3-yl)-1H-pyrazol-4-yl]-5-trifluoromethyl-pyrimidine-2,4-diamine] the figure was 3.9 nM; with `CNc1nc(Nc2cnn([C@H](C)COC)c2C)ncc1C(F)(F)F` [Example 274, N2-[1-((R)-2-Methoxy-1-methyl-ethyl)-5-methyl-1H-pyrazol-4-yl]-N4-methyl-5-trifluoromethyl-pyrimidine-2,4-diamine], 18.5 nM.
Turning to `CCNc1nc(Nc2cn(C(C)(C)c3nncn3C)nc2C)ncc1C(F)(F)F` [Example 337, N4-ethyl-N2-(3-methyl-1-(2-(4-methyl-4H-1,2,4-triazol-3-yl)propan-2-yl)-1H-pyrazol-4-yl)-5-(trifluoromethyl) pyrimidine-2,4-diamine], the inhibitory constant (Ki) was found to be 7.6 nM.
Still for that read-out and setting: with `CNc1nc(Nc2cn(CC3(C)COC3)nc2C)ncc1Cl` [Example 114, 5-chloro-N4-methyl-N2-(3-methyl-1-((3-methyloxetan-3-yl)methyl)-1H-pyrazol-4-yl)pyrimidine-2,4-diamine] the figure was 19 nM; with `CNc1nc(Nc2cnn(-c3ccc(Cl)cc3)c2C)ncc1C(F)(F)F` [Example 123, N2-(1-(4-chlorophenyl)-5-methyl-1H-pyrazol-4-yl)-N4-methyl-5-(trifluoromethyl) pyrimidine-2,4-diamine], 0.3 nM; with `CNc1nc(Nc2cn(C[C@H](C)OC)nc2C)ncc1C(F)(F)F` [Example 189, (S)-N2-(1-(2-methoxypropyl)-3-methyl-1H-pyrazol-4-yl)-N4-methyl-5-(trifluoromethyl) pyrimidine-2,4-diamine], 11.8 nM.
On to `CNc1nc(Nc2cn(-c3ncccn3)nc2C)ncc1C(F)(F)F` [Example 128, N4-methyl-N2-(3-methyl-1-(pyrimidin-2-yl)-1H-pyrazol-4-yl)-5-(trifluoromethyl) pyrimidine-2,4-diamine], for which the Ki worked out at 11.4 nM.
For the compound `CCNc1nc(Nc2cnn(C)c2C)ncc1Br` [Example 257, 5-Bromo-N2-(1,5-dimethyl-1H-pyrazol-4-yl)-N4-ethyl-pyrimidine-2,4-diamine], the Ki was determined as 1.5 nM.
On to `CNc1nc(Nc2cn(CC(O)C(C)C)nc2C)ncc1C(F)(F)F` (centres unmarked) [Example 321, 3-Methyl-1-[3-methyl-4-(4-methylamino-5-trifluoromethyl-pyrimidin-2-ylamino)-pyrazol-1-yl]-butan-2-ol], for which the Ki was determined as 10.8 nM.
On to `CCC(C)S(=O)(=O)n1cc(Nc2ncc(C(F)(F)F)c(NC)n2)c(C)n1` (centres unmarked) [Example 220, N2-(1-(sec-butylsulfonyl)-3-methyl-1H-pyrazol-4-yl)-N4-methyl-5-(trifluoromethyl) pyrimidine-2,4-diamine], for which the inhibitory constant (Ki) is 11.7 nM.
In the case of `Cc1c(Nc2ncc(Cl)c(NCC(F)F)n2)cnn1C` [Example 172, 5-chloro-N4-(2,2-difluoroethyl)-N2-(1,5-dimethyl-1H-pyrazol-4-yl)pyrimidine-2,4-diamine], the inhibition constant (Ki) was found to be 7 nM.
Consider `CNc1nc(Nc2cnn(C(C)C)c2Cl)ncc1C(F)(F)F` [Example 138, N2-(5-chloro-1-isopropyl-1H-pyrazol-4-yl)-N4-methyl-5-(trifluoromethyl) pyrimidine-2,4-diamine], for which the inhibition constant Ki came to 1.1 nM.
For the compound `CCN1CCC(n2ncc(Nc3ncc(C(F)(F)F)c(NC)n3)c2Cl)C(F)C1` (centres unmarked) [Example 242, N2-(5-chloro-1-(1-ethyl-3-fluoropiperidin-4-yl)-1H-pyrazol-4-yl)-N4-methyl-5-(trifluoromethyl) pyrimidine-2,4-diamine], the Ki turned out to be 2.1 nM.
On to `CNc1nc(Nc2cnn(C3CCN(C(=O)C4CC4)CC3)c2C)ncc1C(F)(F)F` [Example 135, cyclopropyl(4-(5-methyl-4-(4-(methylamino)-5-(trifluoromethyl)pyrimidin-2-ylamino)-1H-pyrazol-1-yl)piperidin-1-yl)methanone], for which the inhibition constant (Ki) came out at 1 nM.
On the same count and under the same terms, under `CNc1nc(Nc2cn([C@H](C)COC)nc2C)ncc1C(F)(F)F` [Example 200, (R)-N2-(1-(1-methoxypropan-2-yl)-3-methyl-1H-pyrazol-4-yl)-N4-methyl-5-(trifluoromethyl) pyrimidine-2,4-diamine] stands 12.8 nM.
Same read-out and setting: with `CCNc1nc(Nc2cn(C(C)(C)c3ncn(C)n3)nc2C)ncc1C(F)(F)F` [Example 338, N4-ethyl-N2-(3-methyl-1-(2-(1-methyl-1H-1,2,4-triazol-3-yl)propan-2-yl)-1H-pyrazol-4-yl)-5-(trifluoromethyl) pyrimidine-2,4-diamine] the figure was 0.3 nM.
For `CCS(=O)(=O)n1cc(Nc2ncc(C(F)(F)F)c(NC)n2)c(C)n1` [Example 249, N^2-(1-(ethylsulfonyl)-3-methyl-1H-pyrazol-4-yl)-N4-methyl-5-(trifluoromethyl) pyrimidine-2,4-diamine], the inhibitory constant (Ki) worked out at 3.3 nM.
For the compound `CNc1nc(Nc2cn(C3CN(C(C)C)C3)nc2C)ncc1C(F)(F)F` [Example 214, N2-(1-(1-isopropylazetidin-3-yl)-3-methyl-1H-pyrazol-4-yl)-N4-methyl-5-(trifluoromethyl) pyrimidine-2,4-diamine], the inhibition constant (Ki) was 64 nM.
As to `CNc1nc(Nc2cnn(C3CCN(CC(F)(F)F)CC3)c2C)ncc1C(F)(F)F` [Example 91, N4-methyl-N2-(5-methyl-1-(1-(2,2,2-trifluoroethyl)piperidin-4-yl)-1H-pyrazol-4-yl)-5-(trifluoromethyl) pyrimidine-2,4-diamine], the inhibition constant Ki was determined as 4.1 nM.
Consider `CNc1nc(Nc2cnn(CCF)c2C)ncc1C(F)(F)F` [Example 133, N2-(1-(2-fluoroethyl)-5-methyl-1H-pyrazol-4-yl)-N4-methyl-5-(trifluoromethyl) pyrimidine-2,4-diamine], for which the Ki was found to be 1.8 nM.
